Measurements taken from patent US9303019B2, “Amino-pyrroline derivatives, and use thereof in the prevention and/or treatment of metabolic syndrome” (UNIVERSITE DE STRASBOURG, priority 2012, dated 2016).

Experiments:
[1] = system: different receptors, transporters and enzymes; experiment: Specific binding assay on different receptors, transporters and enzymes; settings: assayed at 10^−7 M and 10^−5 M
Protocol: Compound 1 was assayed at two concentrations 10^−7 (1.0E-07) M and […] (1.0E-05) on different receptors, transporters and enzymes using the techniques described in the literature and adapted for the laboratory.

SHHF rats [2] = experiment: Chronic treatment: body weight and food consumption in SHHF rats; format: in vivo, rat; settings: 20 mg/kg/d
Protocol: (§1) Male SHHF rats (spontaneously hypertensive, heart failure) aged 12 weeks were used for this study (Charles River breeding centre, L'Arbresle, France).
(§2) Compound 1 was administered in the drinking water for 12 weeks at a dose of 20 mg/kg/d (n=17). Water consumption was regularly measured to adjust the concentration of compound 1. Non-treated control SHHF rats had access to normal water (n=10).
(§3) Body weight, water and food intake were measured every day. After a treatment time of 12 weeks, blood samples were taken. Three days later, arterial pressure and heart rate were recorded and a glucose tolerance test was performed.

3T3-L1 adipocytes = experiment: Secretion of adiponectin by differentiated 3T3-L1 adipocytes (ELISA); format: cell-based, murine; settings: 3 μmol/l, 6 h; control 212.6±19.1
Protocol: 3T3-L1 murine preadipocytes were cultured to confluence at 37° C. in DMEM medium containing 4.5 g/litre of D-glucose, 10% FCS and antibiotics. At confluence, differentiation of the 3T3-L1 adipocytes was initiated through the addition over 48 h of a mixture containing 100 μM methyl-isobutylxanthine, 100 nm dexamethasone and 175 nM insulin. The cells were then passaged every 2-3 days in DMEM, 10% FCS and 175 nM insulin. More than 95% of cells had the phenotype of mature adipocytes 10 days after confluence was reached.
To determine the secretion of adiponectin by mature adipocytes, differentiated 3T3-L1 adipocytes (10 days after confluence) were placed in culture in 12-well plates and washed three times with DMEM, then cultured for 6 h in DMEM alone, in the absence or presence of 3 μM of compound 1. In some wells the antagonist selective for the imidazoline receptors I1, efaroxan, was added (100 μM) 30 min before exposure to compound 1.
The culture medium was then recovered, centrifuged for 3 min at 10 000 g to remove cell contaminants, and the supernatant was stored at −80° C. until use. After two washings in cold PBS, the adipocytes were collected in PBS, homogenized and stored at −80° C. An aliquot of adipocyte homogenate was stored for protein determination. The adiponectin was measured using an ELISA kit following the manufacturer's recommendations. The adiponectin concentration was normalized with the cell protein content.

I1 receptor = I1 receptor (Rattus norvegicus, UniProt Q4G017); experiment: Competitive binding to [125I]-PIC in membranes of PC12 cells; settings: PC12 cell membranes
Protocol: The PC-12 cells were cultured in 75-cm^2 dishes in DMEM medium (1000 mg/l glucose) supplemented with 10% FBS inactivated by treatment at 56° C., 100 U/ml penicillin and 100 μg/ml streptomycin. When the cells reached confluence (3 to 4 days after the start of culture) they were harvested and passaged via the action of 0.25% trypsin for 2 minutes at 37° C. For the specific binding assays, the medium was removed and the cells stored by freezing to −20° C. until use with the membrane preparation.
The frozen PC12 cells were recovered by scraping in ice-cold Tris-HEPES buffer (5 mM Tris-HEPES, pH 7.7, 0.5 mM EDTA, 0.5 mM EGTA and 0.5 mM MgCl2) and Potter homogenized. After centrifuging at 75,000 g for 20 min, the residue was washed in ice-cold Tris-HEPES buffer then again centrifuged. This last operation was performed twice. […]
The reaction was halted by rapid vacuum filtration through GF/B fibre glass filters treated with 0.3% PEI using filtering equipment of Brandel® type, followed by three rapid washings of the filters using 3 ml of ice-cold 50 mM Tris-HCl buffer, pH 7.4. The radioactivity retained on the dried filters was determined using a Minaxi gamma counter (Packard, Meriden, CT, USA). Non-specific binding was determined by [^125I]PIC binding in the presence of 10 μM PIC and represented about 43% of total radioactivity.

SHHF rats [3] = experiment: Chronic treatment: plasma biochemical parameters in SHHF rats; format: in vivo, rat; settings: 20 mg/kg/d, 12 weeks
Protocol: as §1, §2, §3
After a treatment time of 12 weeks, blood samples were obtained from the caudal vein of anesthetized rats (2.5% isoflurane, Abbott, Rungis, France) after a fasting time of 18 h.
The blood were centrifuged for 15 minutes at 2000 g and the plasma was frozen to −80° C. until assays of glucose, total cholesterol, HDL and LDL cholesterol and fatty acids. These assays were performed at the following centre: Plateau Technique Biologique des Hôpitaux Universitaires de Strasbourg (Advia 2400, Bayer HealthCare).
Insulin, leptin, adiponectin and glucagon were assayed using ELISA kits (insulin: Mercodia, Uppsala, Sweden; leptin: Yanaihara Institute Inc., Shizuoka, Japan; adiponectin: B-Bridge International, Mountain View, USA; glucagon: Gentaur, Kampenhout, Belgium) following the supplier's recommendations.

α2-adrenergic receptors = experiment: Binding assay of the α2-adrenergic receptors on CHO cell membranes with [3H]RX821002; set-up: species or system human
Protocol: These membranes (30 μg proteins/ml for CHO-hα2A and CHO-hα2B, 100 μg protein/ml for CHO-hα2C) were incubated for 60 min at ambient temperature in binding buffer (33 mM Tris-HCl, 1 mM EDTA, pH 7.5) in a final volume of 500 μL containing 0.8 or 1 or 2 nM [^3H]RX821002 respectively for the adrenergic receptors hα2A, hα2B and hα2C.
Incubation was halted by rapid vacuum filtration through GF/C glass fibre filters followed by three successive washings in ice-cold binding buffer.
Non-specific binding was determined using 10 μM phentolamine.
The competitive assays were analyzed by non-linear regression using the GraphPad programme.
Ki values were determined using the method described by Cheng and Prussof (Cheng, Y. C.; Prusoff, W. H. Relationship between the Inhibition Constant (Ki) and the Concentration of Inhibitor which causes 50 percent Inhibition (I50) of an Enzymatic Reaction. Biochem. Pharmacol. 1973, 22, 3099-3108).

I1 receptor, sequence (Q4G017 whole entry, looked up): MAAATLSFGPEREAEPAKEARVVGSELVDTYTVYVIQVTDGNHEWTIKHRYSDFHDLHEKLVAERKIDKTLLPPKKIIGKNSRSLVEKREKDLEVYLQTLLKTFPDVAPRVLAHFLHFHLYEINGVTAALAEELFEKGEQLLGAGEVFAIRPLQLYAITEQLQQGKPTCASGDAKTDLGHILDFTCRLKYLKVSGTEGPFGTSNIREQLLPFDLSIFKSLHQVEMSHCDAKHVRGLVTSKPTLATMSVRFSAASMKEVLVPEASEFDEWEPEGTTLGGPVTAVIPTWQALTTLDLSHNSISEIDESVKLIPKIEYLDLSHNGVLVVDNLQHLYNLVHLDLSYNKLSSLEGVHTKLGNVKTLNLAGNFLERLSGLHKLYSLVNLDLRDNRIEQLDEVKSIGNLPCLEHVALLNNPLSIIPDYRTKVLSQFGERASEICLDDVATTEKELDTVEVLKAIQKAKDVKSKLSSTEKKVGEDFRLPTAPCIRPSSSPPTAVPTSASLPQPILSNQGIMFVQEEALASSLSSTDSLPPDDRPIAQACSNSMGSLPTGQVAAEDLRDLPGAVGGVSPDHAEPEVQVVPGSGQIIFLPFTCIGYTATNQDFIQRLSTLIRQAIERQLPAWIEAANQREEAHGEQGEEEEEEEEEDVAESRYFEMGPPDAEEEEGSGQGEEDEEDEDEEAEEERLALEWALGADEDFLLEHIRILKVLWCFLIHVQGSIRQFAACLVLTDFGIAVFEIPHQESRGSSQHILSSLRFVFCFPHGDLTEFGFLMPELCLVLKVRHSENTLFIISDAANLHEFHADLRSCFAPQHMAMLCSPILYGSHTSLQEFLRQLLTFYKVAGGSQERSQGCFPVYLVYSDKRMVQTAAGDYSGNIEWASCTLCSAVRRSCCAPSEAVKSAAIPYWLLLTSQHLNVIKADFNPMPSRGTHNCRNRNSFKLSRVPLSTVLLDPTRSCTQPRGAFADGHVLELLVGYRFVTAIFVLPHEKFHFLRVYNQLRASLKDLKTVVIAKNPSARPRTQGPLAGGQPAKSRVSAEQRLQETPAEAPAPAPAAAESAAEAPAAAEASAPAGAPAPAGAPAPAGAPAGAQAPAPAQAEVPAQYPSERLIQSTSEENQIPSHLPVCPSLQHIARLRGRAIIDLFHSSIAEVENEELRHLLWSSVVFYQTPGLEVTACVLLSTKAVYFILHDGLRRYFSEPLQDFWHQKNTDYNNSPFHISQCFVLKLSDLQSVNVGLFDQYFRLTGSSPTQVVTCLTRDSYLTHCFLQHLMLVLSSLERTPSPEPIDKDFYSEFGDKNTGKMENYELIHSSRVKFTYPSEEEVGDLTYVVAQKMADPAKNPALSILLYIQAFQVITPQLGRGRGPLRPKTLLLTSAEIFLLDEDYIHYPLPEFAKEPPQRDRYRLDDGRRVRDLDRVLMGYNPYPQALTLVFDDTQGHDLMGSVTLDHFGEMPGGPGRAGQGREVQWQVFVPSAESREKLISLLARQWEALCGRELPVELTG

Structure (SMILES): Cc1c(Cl)cccc1NC1=NCC(C)C1.Cl (stereo not drawn) [Compound 1, (3-Chloro-2-methyl-phenyl)-(4-methyl-4,5-dihydro-3H-pyrrol-2-yl)-amine hydrochloride]
- affinity for more than 50 receptors, transporters and enzymes ([1]; hydrochloride): does not exhibit any affinity similar to the affinity for the imidazoline receptor I1
- affinity for more than 50 receptors, transporters and enzymes ([1]; listed as compound 1, hydrochloride): does not bind to any of the assayed receptors, transporters and enzymes with affinity similar
- body weight (SHHF rats [2]; after 9 weeks until end of treatment): lower body weight than the controls
- food consumption (SHHF rats [2]; after one week's treatment): below that of the controls
- secretion of adiponectin (3T3-L1 adipocytes): 378±38 ng/ml/mg of proteins
- share of sites with high affinity (I1 receptor): 55%
- fasting glycaemia (SHHF rats [3]): not affected
- free fatty acids (SHHF rats [3]): not affected
- total plasma cholesterol (SHHF rats [3]; fasting 18 h, control 3.8±0.18): 2.7 ± 0.09 mmol/L
- plasma triglycerides (SHHF rats [3]; fasting 18 h, control 4.59±0.23): 3.8 ± 0.25 mmol/L
- plasma adiponectin (SHHF rats [3]; control 5.54±0.14): 10.6 ± 0.52 µg/mL
- fasting plasma insulin (SHHF rats [3]; control 46.8±3.7): 15.2 ± 2 ng/mL
- HOMA-IR index (SHHF rats [3]; control 534±38): 110±14
- Ki (α2-adrenergic receptors; CHO cells): > 10 µM
- displacement at the α2-adrenergic receptor (α2-adrenergic receptors; concentration of 10^−5 M): No significant displacement
